Source: patent US8580545B2, “Biodegradable linkers for molecular therapies” (The Children's Hospital of Philadelphia, priority 2004, dated 2013)

Test: Hydrolysis of the ester bond of the cross-linker (model experiments)
Conditions: 37° C.

O=C(CCSSc1ccccn1)NCCCOC(=O)CCCCC(=O)ON1C(=O)CC(S(=O)(=O)[O-])C1=O.[Na+] (centres unmarked) [cross-linker 1]
t1/2 of the ester bond hydrolysis: several weeks

O=C(CCCCC(=O)ON1C(=O)CC(S(=O)(=O)[O-])C1=O)NCC(=O)OCCSSc1ccccn1.[Na+] (centres unmarked) [cross-linker 2]
t1/2 of the ester bond hydrolysis: several days
